# From US20100292471A1, “PEPTIDE NUCLEIC ACID OLIGOMERS […] BASES,PREPARATION METHODS THEREOF, AND KITS, DEVICES AND METHODS FOR THE ANALYSIS, DETECTION OR MODULATION OF NUCLEIC ACIDS USING THE SAME” (PANAGENE INC., priority 2006, published 2010)
# Key:
# [1] = system: PCR product of HBV wild type; assay: PNA microarray hybridization with biotinylated PCR product, streptavidine-Cy5 fluorescence (single mismatch); format: binding, hepatitis B virus (HBV); conditions: hybridization at 40° C. for 2 hours, fluorescence scanner, SEQ ID Nos. 2 to 4 compared to SEQ ID No. 1
# [2] = system: PCR product of HBV mutant type; assay: PNA microarray hybridization with biotinylated PCR product, streptavidine-Cy5 fluorescence (perfect match); format: binding, hepatitis B virus (HBV)
# Description: The purified oligomer was diluted at a concentration of […], and spotted on a slide glass functionalized with epoxy group (Panagene, Korea) in pin mode, and the slide was allowed to stand for 4 hours at room temperature while maintaining 75% humidity. Then, it was immersed into DMF, and washed by ultrasonication for 15 minutes. It was immersed into DMF containing 0.1 M succinic anhydride and reacted at 40° C. for 2 hours. And the reaction mixture was washed by ultrasonication with DMF and deionized water, sequentially, for 15 minutes per time. Then, the slide was treated with 100 mM Tris-HCl buffer containing 0.1 M ethanolamine for 2 hours to inactivate the residual epoxy groups on the surface of the slide glass. The slide glass was washed by ultrasonication with deionized water, twice for 15 minutes per time, treated with boiling water for 5 minutes, washed with deionized water for 5 minutes, and dried. Then, a PNA microarray was ready for hybridization after attaching a silicon rubber sealing mat having holes, which can contain 100 μl of hybridization solution, to the slide glass.
# To a hybridization solution of 100 μl was added 5 μl of the PCR product of HBV mutant type having biotin attached thereto, and streptavidine-Cy5 was added thereto to cause fluorescent reaction. […] The PNA microarray was scanned by a fluorescence scanner. […]
substance,measurement,setting,value
"k(k)k-OO-GAGCCATGAGAAA (all peptide nucleic acid (PNA); N-terminal lysines and OO linker attached) [SEQ ID No. 1, PNA oligomer, 13 mer consisting of natural bases to detect mutation]",single mismatch signal,[1],intensive single mismatch signal
same,perfect match signal,"[2]; PCR product of HBV mutant type, hybridization at 40° C. for 2 hours, fluorescence scanner, FIGS. 2 and 3",intensive perfect match signal
same,discriminability of HBV mutant type against wild type,[2]; perfect match signal for HBV mutant type versus single mismatch signal for HBV wild type,cannot discriminate HBV mutant type against wild type
